Holding throughout (type): cell-based
Test [1] has as its system RSV strain A2. The experiment in a line: RSV HEp-2 EC50 (infectious cytopathic cell protection assay). The following applies: read-out: RSV HEp-2 EC50. In outline: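 HEp-2 cells mixed with titered RSV A2 at 50,000 cells/ml were added to plates holding 3-fold serial compound dilutions in DMSO, then incubated 4 days at 37° C. Cytoprotection was read as cell viability by CellTiter-Glo luminescence and converted to percent inhibition against 0% and 100% inhibition controls.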

For test [2], the system named is DENV2 replicon. The experiment in a line: DENV-2 Huh-7 Rep EC50 (replicon luminescence). To be noted: read-out: DENV-2 Huh-7 Rep EC50. In outline:
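Huh-7 cells carrying a DENV2 replicon, 5,000 cells/well, were incubated with dosed compounds for 48 h at 37° C. EnduRen live-cell substrate was added 1.5 h before luminescence reading. EC50 came from dose-response against DMSO-only wells.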

The subject of test [3] is HRV16. The experiment in a line: HRV16 HELA EC50 (cytopathic effect in H1-HeLa cells). The method, boiled down: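 H1-HeLa cells seeded one day before, given 3-fold serial compound dilutions in triplicate just prior to infection with pre-titrated virus. Incubated 96 h at 33 °C/5% CO2; protection from cytopathic effect read as viability by CellTiter-Glo luminescence, normalised to infected untreated (0%) and uninfected (100%) controls.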

The subject of test [4] is Dengue serotype 2 New Guinea C (NGC) strain. The experiment in a line: DENV-2 Huh-7 EC50 (qPCR in Huh7 cells). The protocol: Huh7 (Human hepatocarcinoma 7) cells were maintained in 10% FCS-containing DMEM complete media. On the day of the assay, cells were trypsinized (0.1% Trypsin-EDTA), washed and infected for 2 hours in serum-free DMEM with Dengue serotype 2 New Guinea C (NGC) strain at MOI=0.1 with gentle agitation at 37° C. After 2 hours, cells were washed with serum-free media and suspended in 10% FCS-containing DMEM (Gibco, supplemented with sodium pyruvate, NEAA, Penicillin-Streptomycin). 10^5 cells were plated in triplicate in 96-well plates with compounds dispensed at graded doses (Hewlett-Packard D300 Digital Dispenser). All wells were normalized to 0.25% DMSO. At 48 hours, cells were washed with 1×PBS and all supernatants removed. Total RNA was extracted using RNEasy 96 plates (Qiagen) and used to generate first-strand cDNA using XLT cDNA 5×Supermix (QuantaBio). cDNA was used as a template in a Taqman qPCR duplex reaction specific to DENV2 viral and GAPDH gene expression. EC50 values were determined using Prism Graphpad software, with normalization to a positive control and no compound negative control wells.
(In general: Quantitative PCR measures a nucleic acid by following its amplification.)

For test [5], the system named is RSV A2. The experiment in a line: RSV NHBE EC50 (RSV A2 antiviral assay in normal human bronchial epithelial cells). To be noted: read-out: RSV NHBE EC50.
[6] abbreviates: human respiratory syncytial virus, HEp-2, 96 h, HEp-2 cells, RSV A2, 4 days.
[7] abbreviates: Dengue virus, DENV2, Huh-7, 48 h, Huh-7 replicon cells, 48 hours.
Where [8] appears, read: 96 h, H1-HeLa cells, 33° C., read-out: HRV16 HELA EC50.
[9] abbreviates: Dengue virus, DENV2, Huh-7, 48 h.
The mark [10] stands for this setting: human respiratory syncytial virus, NHBE, 96 h, NHBE cells, RSV A2, 4 days.
[11] abbreviates: H1-HeLa cells, 96 h, 33° C.; read-out: HRV16 HELA EC50.

Molecules are shown by their SMILES. Like-named read-outs stand apart in the source and are kept apart here.

As to `CC(C)(C)C(=O)OCCNP(=O)(OC[C@@]1(C#N)O[C@@H](c2ccc3c(N)ncnn23)[C@H](O)[C@@H]1O)Oc1ccccc1` (mixture of isomers) [Example 11, 2-(((((2R,3S,4R,5S)-5-(4-aminopyrrolo[2,1-f][1,2,4]triazin-7-yl)-2-cyano-3,4-dihydroxytetrahydrofuran-2-yl)methoxy)(phenoxy)phosphoryl)amino)ethyl pivalate], the EC50 (in general, the concentration at which the effect is half-maximal) in test [1] (setting [6]) was 269 nM; in test [2] (setting [7]) it was greater than 50000 nM; in test [3] (setting [8]), 1200 nM; in test [4] (setting [9]) it was 3500 nM; in test [5] (setting [10]), 54 nM.
`CCOC(=O)[C@H](C)NP(=O)(OC[C@@]1(C#N)O[C@@H](c2ccc3c(N)ncnn23)[C@H](O)[C@@H]1O)Oc1ccc(C(C)(C)C)cc1` (mixture of isomers) [Example 263, Ethyl ((((2R,3S,4R,5S)-5-(4-aminopyrrolo[2,1-f][1,2,4]triazin-7-yl)-2-cyano-3,4-dihydroxytetrahydrofuran-2-yl)methoxy)(4-(tert-butyl)phenoxy)phosphoryl)-L-alaninate]: the values for the EC50 in test [1] (setting [6]), in test [2] (setting [7]) and in test [4] (setting [9]) were 35 nM, 8030 nM and 569 nM, respectively.
As to `C[C@H](NP(=O)(OC[C@@]1(C#N)O[C@@H](c2ccc3c(N)ncnn23)[C@H](O)[C@@H]1O)Oc1ccccc1)C(=O)OCC1CC1` (single isomer, unassigned) [Example 9], the EC50 is 1010 nM in test [1] (HEp-2 cells, RSV A2, 4 days); greater than 50000 nM in test [2] (Huh-7 replicon cells, 48 hours); 324 nM in test [3] (setting [11]); 1460 nM in test [4] (48 hours); 97 nM in test [5] (NHBE cells, RSV A2, 4 days).
With `C[C@H](NP(=O)(OC[C@@]1(C#N)O[C@@H](c2ccc3c(N)ncnn23)[C@H](O)[C@@H]1O)Oc1ccccc1)C(=O)OCC1CC1` (single isomer, unassigned) [Example 10], the EC50 came out at 191 nM in test [1] (HEp-2 cells, RSV A2, 4 days); 17900 nM in test [2] (Huh-7 replicon cells, 48 hours); 583 nM in test [3] (setting [11]); 2790 nM in test [4] (48 hours); 421 nM in test [5] (NHBE cells, RSV A2, 4 days).
Taken in the same sequence, the figures for `CC(NP(=O)(OCC1(C#N)OC(c2ccc3c(N)ncnn23)C(O)C1O)Oc1ccccc1)C(=O)OCC1CCC(C(F)(F)F)CC1` (single isomer, unassigned) [Example 27] were 1300 nM, 82200 nM, 3160 nM, 5680 nM and 18 nM.
`COCCCOC(=O)[C@H](C)NP(=O)(OC[C@@]1(C#N)O[C@@H](c2ccc3c(N)ncnn23)[C@H](O)[C@@H]1O)Oc1ccccc1` (single isomer, unassigned) [Example 59]: the EC50 amounted to 56500 nM in test [2] (Huh-7 replicon cells, 48 hours); 4650 nM in test [4] (48 hours); 111 nM in test [5] (NHBE cells, RSV A2, 4 days).
With `C[C@H](NP(=O)(OC[C@@]1(C#N)O[C@@H](c2ccc3c(N)ncnn23)[C@H](O)[C@@H]1O)Oc1ccccc1)C(=O)OC1CCCCCC1` (single isomer, unassigned) [Example 135], the half-maximal effective concentration (EC50) in test [1] (HEp-2 cells, RSV A2, 4 days) amounted to 233 nM; in test [4] (setting [9]) it was 1390 nM; in test [5] (setting [10]), 66 nM.
Consider `CCOC(=O)[C@H](C)NP(=O)(OC[C@@]1(C#N)O[C@@H](c2ccc3c(N)ncnn23)[C@H](O)[C@@H]1O)Oc1ccc(C(C)(C)C)cc1` (single isomer, unassigned) [Example 265], for which the EC50 was determined as 215 nM in test [1] (HEp-2 cells, RSV A2, 4 days) and 390 nM in test [4] (setting [9]).
For the compound `CC(C)OC(=O)[C@H](C)N[P@](=O)(OC[C@@]1(C#N)O[C@@H](c2ccc3c(NC(=O)C(C)C)ncnn23)[C@H](O)[C@@H]1O)Oc1ccccc1` [Example 234, isopropyl ((S)-(((2R,3S,4R,5S)-2-cyano-3,4-dihydroxy-5-(4-isobutyramidopyrrolo[2,1-f][1,2,4]triazin-7-yl)tetrahydrofuran-2-yl)methoxy)(phenoxy)phosphoryl)-L-alaninate], the half-maximal effective concentration (EC50) in test [1] (setting [6]) was 696 nM; in test [2] (setting [7]), 36400 nM; in test [3] (setting [8]), 6870 nM; in test [5] (setting [10]), 2410 nM.
Taken in the same sequence, the figures for `CC(C)C(=O)Nc1ncnn2c([C@@H]3O[C@](C#N)(CO[P@@](=O)(N[C@@H](C)C(=O)OC4CCCCC4)Oc4ccccc4)[C@@H](O)[C@H]3O)ccc12` [Example 235, cyclohexyl ((S)-(((2R,3S,4R,5S)-2-cyano-3,4-dihydroxy-5-(4-isobutyramidopyrrolo[2,1-f][1,2,4]triazin-7-yl)tetrahydrofuran-2-yl)methoxy)(phenoxy)phosphoryl)-L-alaninate] were 114 nM, 3960 nM, 1100 nM and 510 nM.
Taken in the same sequence, the figures for `CC(C)OC(=O)[C@H](C)N[P@](=O)(OC[C@@]1(C#N)O[C@@H](c2ccc3c(N)ncnn23)[C@@H]2OC(=O)O[C@@H]21)Oc1ccccc1` [Example 236, isopropyl ((S)-(((3aS,4R,6S,6aS)-6-(4-aminopyrrolo[2,1-f][1,2,4]triazin-7-yl)-4-cyano-2-oxotetrahydrofuro[3,4-d][1,3]dioxol-4-yl)methoxy) (phenoxy)phosphoryl)-L-alaninate] were 189 nM, 17900 nM, 741 nM and 949 nM.
With `CC(C)[C@H](N)C(=O)Nc1ncnn2c([C@@H]3O[C@](C#N)(CO[P@@](=O)(N[C@@H](C)C(=O)OC4CCCCC4)Oc4ccccc4)[C@@H](O)[C@H]3O)ccc12` [Example 237, cyclohexyl ((S)-(((2R,3S,4R,5S)-5-(4-((S)-2-amino-3-methylbutanamido)pyrrolo[2,1-f][1,2,4]triazin-7-yl)-2-cyano-3,4-dihydroxytetrahydrofuran-2-yl)methoxy)(phenoxy)phosphoryl)-L-alaninate], the EC50 is greater than 38400 nM in test [1] (setting [6]), greater than 50000 nM in test [2] (setting [7]), greater than 50000 nM in test [3] (setting [8]) and greater than 10800 nM in test [5] (setting [10]).
Take `CCC(CC)COC(=O)[C@H](C)OP(=O)(OC[C@@]1(C#N)O[C@@H](c2ccc3c(N)ncnn23)[C@H](O)[C@@H]1O)Oc1ccccc1` (stereo partly drawn) [Example 244, 2-ethylbutyl (2S)-2-(((((2R,3S,4R,5S)-5-(4-aminopyrrolo [2,1-f][1,2,4]triazin-7-yl)-2-cyano-3,4-dihydroxytetrahydrofuran-2-yl)methoxy)(phenoxy)phosphoryl)oxy)propanoate]: the concentration for a half-maximal effect (EC50) in test [1] (human respiratory syncytial virus, HEp-2, 96 h) was 4950 nM; in test [2] (setting [9]) it was 36700 nM; in test [3] (96 h, read-out: HRV16 HELA EC50) it was 33600 nM; in test [5] (human respiratory syncytial virus, NHBE, 96 h) it was greater than 5000 nM.
In the case of `C[C@H](NP(=O)(OC[C@@]1(C#N)O[C@@H](c2ccc3c(N)ncnn23)[C@H](O)[C@@H]1O)Oc1ccccc1)C(=O)OCC(CO)CO` (stereo partly drawn) [Example 245, 3-hydroxy-2-(hydroxymethyl)propyl ((((2R,3S,4R,5S)-5-(4-aminopyrrolo[2,1-f][1,2,4]triazin-7-yl)-2-cyano-3,4-dihydroxytetrahydrofuran-2-yl)methoxy)(phenoxy)phosphoryl)-L-alaninate], the EC50 in test [1] (setting [6]) was 3790 nM; in test [2] (setting [7]), greater than 50000 nM; in test [3] (setting [8]), 29000 nM; in test [5] (setting [10]) it was greater than 5000 nM.
As for `C[C@H](NP(=O)(OC[C@@]1(C#N)O[C@@H](c2ccc3c(N)ncnn23)[C@H](O)[C@@H]1O)Oc1ccccc1)C(=O)OCC1(C)CC1` (stereo partly drawn) [Example 257, (1-methylcyclopropyl)methyl ((((2R,3S,4R,5S)-5-(4-aminopyrrolo[2,1-f][1,2,4]triazin-7-yl)-2-cyano-3,4-dihydroxytetrahydrofuran-2-yl)methoxy)(phenoxy)phosphoryl)-L-alaninate], the EC50 was determined as 29 nM in test [1] (setting [6]), 5480 nM in test [2] (setting [7]) and 2210 nM in test [4] (setting [9]).
The like results for `C[C@H](NP(=O)(OC[C@@]1(C#N)O[C@@H](c2ccc3c(N)ncnn23)[C@H](O)[C@@H]1O)Oc1ccccc1)C(=O)OCC(C)(C)C(F)(F)F` (stereo partly drawn) [Example 260, 3,3,3-trifluoro-2,2-dimethylpropyl ((((2R,3S,4R,5S)-5-(4-aminopyrrolo[2,1-f][1,2,4]triazin-7-yl)-2-cyano-3,4-dihydroxytetrahydrofuran-2-yl)methoxy)(phenoxy)phosphoryl)-L-alaninate] were, in that order, 66 nM, 9950 nM and 682 nM.

The values are drawn from patent US20230295201A1 (Gilead Sciences, Inc., priority 2020, published 2023).
